Test results as given in US9889157B2, “Phosphate-binding magnesium salts and uses thereof” (Cypress Pharmaceuticals, Inc., priority 2009, dated 2018).
Each block holds one molecule with its values, some of them ahead of it.

Assay: Phosphate-binding assay in phosphate-binding solution (PBS) simulating small intestinal fluid (SIF)
Description: Exemplary stock solutions suitable for phosphate-binding assays include the following: phosphate-binding solution (“PBS”) containing 10 mM KH2PO4, 30 mM Na2CO3, 80 mM NaCl, as described in Rosenbaum et al. Nephrol. Dial. Transplant. 12:961-964 (1997); acetate buffer (“AB”) solution containing 0.1N acetic acid, 0.025N sodium acetate, as described in Lowry & Lopez J. Biol. Chem. 162:421-428 (1946); ammonium molybdate (“AM”) solution containing 1% ammonium molybdate in 0.05N H2SO4, as described in Lowry & Lopez; ascorbic acid (“AA”) solution containing 1% ascorbic acid in H2O, as described in Lowry & Lopez.
In general, the phosphate-binding assay was conducted in 12×75 mm glass tubes. 4.0 mL PBS (which is a solution simulating SIF) and 20 mg putative phosphate binder were added to a glass tube and then mixed for 1 h at room temperature. 0.1 mL supernatant was pipetted from this tube to a new test tube. 3.0 mL AB, 0.3 mL AA and 0.3 mL AM solutions were added and O.D. were measured at 700 nm after 10 minutes.
The phosphate binding capacity was calculated as follows (mcg stands for micrograms): ((O.D. of sample×95)/O.D. of standard)×40=mcgPO4 left in solution ((3800−mcgPO4 left)×50)/1000=mgPO4 bound per gram of phosphate binder

[1] = Table 2, 20 mg binder in 4.0 mL PBS, 1 h, room temperature
[2] = Table 3, 20 mg binder in 4.0 mL PBS, 1 h, room temperature
[3] = Table 4, calculated from Table 3 and % Mg (or % Ca)

Molecule: O=C([O-])[O-].[Ca+2] [CaCO3, calcium carbonate, reference compound]
PO4 binding [1]: 10.9 mg/g

PO4 binding [2]: 4 mg/g
Molecule: CC(=O)[O-].CC(=O)[O-].[Mg+2] [Mg acetate]

PO4 binding [2]: 6 mg/g
Molecule: O=C([O-])CCCCC(=O)[O-].[Mg+2] [Mg adipate]

PO4 binding [2]: 4 mg/g
Molecule: O=C1O[C@H]([C@@H](O)CO)C(O)=C1[O-].O=C1O[C@H]([C@@H](O)CO)C(O)=C1[O-].[Mg+2] [Mg ascorbate]

Molecule: N[C@@H](CC(=O)[O-])C(=O)[O-].[Mg+2] [Mg aspartate, magnesium aspartate]
PO4 binding [2]: 50 mg/g

Molecule: [Cl-].[Cl-].[Mg+2] [Mg chloride, magnesium chloride]
PO4 binding [2]: 4 mg/g

PO4 binding [1]: 16.3 mg/g | PO4 binding [2]: 15 mg/g
Molecule: O=C([O-])CC(O)(CC(=O)[O-])C(=O)[O-].O=C([O-])CC(O)(CC(=O)[O-])C(=O)[O-].[Mg+2].[Mg+2].[Mg+2] [Mg citrate]

PO4 binding [2]: 6 mg/g
Molecule: O=C[O-].O=C[O-].[Mg+2] [Mg formate]

PO4 binding [2]: 4 mg/g
Molecule: O=C([O-])/C=C/C(=O)[O-].[Mg+2] [Mg fumarate]

Molecule: NCC(=O)[O-].NCC(=O)[O-].[Mg+2] [Mg glycinate, magnesium glycinate]
PO4 binding [2]: 176 mg/g | mg PO4 bound per g Mg or Ca in compound [3]: 1248 mg PO4 per g Mg or Ca | mg PO4 bound per g compound (Table 4, taken from Table 3): 176 mg PO4 per g compound | mg PO4 bound per g Mg or Ca in compound (Table 5, additional results): 1255 mg PO4 per g Mg (or Ca) | mg PO4 bound per g compound (Table 5, additional results): 177 mg PO4 per g compound

PO4 binding [2]: 15 mg/g
Molecule: CC(O)C(=O)[O-].CC(O)C(=O)[O-].[Mg+2] (stereo not shown) [Mg lactate]

mg PO4 bound per g compound (Table 5, additional results): 29 mg PO4 per g compound
Molecule: O=C([O-])CC(O)C(=O)[O-].[Mg+2] (stereo not shown) [Mg malate]

PO4 binding [2]: 15 mg/g
Molecule: O=C([O-])/C=C\C(=O)[O-].[Mg+2] [Mg maleate]

PO4 binding [2]: 4 mg/g
Molecule: O=C([O-])c1cccnc1.O=C([O-])c1cccnc1.[Mg+2] [Mg nicotinate]

PO4 binding [2]: 20 mg/g
Molecule: O=C([O-])c1cc(=O)[nH]c(=O)[nH]1.O=C([O-])c1cc(=O)[nH]c(=O)[nH]1.[Mg+2] [Mg orotate]

Molecule: CCC(=O)[O-].CCC(=O)[O-].[Mg+2] [Mg propionate, magnesium propionate]
PO4 binding [2]: 59 mg/g

PO4 binding [2]: 18 mg/g
Molecule: O=C([O-])CCC(=O)[O-].[Mg+2] [Mg succinate]

PO4 binding [2]: 9 mg/g
Molecule: O=S(=O)([O-])[O-].[Mg+2] [Mg sulfate]

Molecule: O=C([O-])C(O)C(O)C(=O)[O-].[Mg+2] (stereo not shown) [Mg tartrate, magnesium tartrate]
PO4 binding [2]: 28 mg/g

Molecule: [Mg+2].[OH-].[OH-] [Mg(OH)2, magnesium hydroxide]
PO4 binding [1]: 176.2 mg/g | PO4 binding [2]: 182 mg/g | mg PO4 bound per g Mg or Ca in compound [3]: 436 mg PO4 per g Mg or Ca | mg PO4 bound per g compound (Table 4, taken from Table 3): 182 mg PO4 per g compound | PO4 binding (Table 6, without acid treatment): 179.0 mg/g

Molecule: O=C([O-])[O-].[Mg+2] [MgCO3, magnesium carbonate]
PO4 binding [1]: 19.0 mg/g | PO4 binding [2]: 22 mg/g

Molecule: [O]=[Mg] [MgO, magnesium oxide]
PO4 binding [1]: 184.0 mg/g | PO4 binding [2]: ≧190 mg/g | mg PO4 bound per g Mg or Ca in compound [3]: 315 mg PO4 per g Mg or Ca | mg PO4 bound per g compound (Table 4, taken from Table 3): 190 mg PO4 per g compound | mg PO4 bound per g Mg or Ca in compound (Table 5, additional results): 310 mg PO4 per g Mg (or Ca) | mg PO4 bound per g compound (Table 5, additional results): 187 mg PO4 per g compound

PO4 binding [1]: 19.0 mg/g
Molecule: O.O.O.O.O.O.O.O=S(=O)([O-])[O-].[Mg+2] [MgSO4•7H2O]

PO4 binding [2]: 15 mg/g
Molecule: Mg stearate

Molecule: magnesium aminobutyrate [Mg aminobutyrate]
PO4 binding [2]: 85 mg/g | mg PO4 bound per g compound (Table 5, additional results): 76 mg PO4 per g compound

Molecule: magnesium arginate [Mg arginate]
PO4 binding [2]: 121 mg/g | mg PO4 bound per g Mg or Ca in compound [3]: 1862 mg PO4 per g Mg or Ca | mg PO4 bound per g compound (Table 4, taken from Table 3): 121 mg PO4 per g compound | mg PO4 bound per g Mg or Ca in compound (Table 5, additional results): 1815 mg PO4 per g Mg (or Ca) | mg PO4 bound per g compound (Table 5, additional results): 118 mg PO4 per g compound

PO4 binding [2]: 147 mg/g | mg PO4 bound per g Mg or Ca in compound [3]: 1547 mg PO4 per g Mg or Ca | mg PO4 bound per g compound (Table 4, taken from Table 3): 147 mg PO4 per g compound | mg PO4 bound per g Mg or Ca in compound (Table 5, additional results): 1484 mg PO4 per g Mg (or Ca) | mg PO4 bound per g compound (Table 5, additional results): 141 mg PO4 per g compound
Molecule: magnesium betainate [Mg betainate]

PO4 binding [2]: 169 mg/g
Molecule: magnesium carnitinate [Mg carnitinate]

Molecule: magnesium lysinate [Mg lysinate]
PO4 binding [2]: 150 mg/g | mg PO4 bound per g Mg or Ca in compound [3]: 1948 mg PO4 per g Mg or Ca | mg PO4 bound per g compound (Table 4, taken from Table 3): 150 mg PO4 per g compound | mg PO4 bound per g Mg or Ca in compound (Table 5, additional results): 1792 mg PO4 per g Mg (or Ca) | mg PO4 bound per g compound (Table 5, additional results): 138 mg PO4 per g compound | phosphate bound by 1 gram of Mg in the salt relative to 1 gram of calcium in PhosLo (Ca acetate) (from Table 4): almost three times as much
